Measurements as given in patent publication US8658131B2, “Compounds comprising 4-benzoylpiperidine as a sigma-1-selective ligand” (Washington University, priority 2010, dated 2014).
Several values for one entry are separate records, joined by “and”; a condition that tells them apart may be missing. Equal values may be shown once. Where a name gives a salt, the structure may show the parent alone. Read-outs that look alike come from different tables or passages of the source.

Tests used:
σ1 receptor = target: T1, σ1 receptor (Cavia porcellus, UniProt Q60492); assay: σ1 receptor binding assay, (+)-[3H]pentazocine, guinea pig brain membranes
T1 construct: using guinea pig brain membrane homogenates; from tissue; host or cells: guinea pig brain membrane homogenates
T1 sequence (Q60492 whole entry): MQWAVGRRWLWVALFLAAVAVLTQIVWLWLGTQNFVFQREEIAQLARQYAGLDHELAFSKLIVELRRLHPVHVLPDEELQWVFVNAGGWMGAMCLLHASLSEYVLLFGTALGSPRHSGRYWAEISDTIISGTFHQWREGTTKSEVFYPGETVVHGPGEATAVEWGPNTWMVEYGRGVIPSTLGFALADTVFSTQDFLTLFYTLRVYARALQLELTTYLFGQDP
Experimental: (§1) The compounds were dissolved in DMF, DMSO, or ethanol, and then diluted in 50 mM Tris-HCl buffer containing 150 mM NaCl and 100 mM EDTA at pH 7.4, prior to performing the σ1 and σ2 receptor binding assays.
The total incubation time was 90 min at room temperature. Nonspecific binding was determined from samples that contained 10 μM of cold haloperidol. After 90 min, the reaction was quenched by adding 150 μL of ice-cold wash buffer (10 mM Tris-HCl, 150 mM NaCl, pH 7.4) using a 96 channel transfer pipet (Fisher Scientific, Pittsburgh, Pa.). The samples were harvested and filtered rapidly through a 96-well fiberglass filter plate (Millipore, Billerica, Mass.) that had been presoaked with 100 μL of 50 mM Tris-HCl buffer at pH 8.0 for 1 h.
(§2) Ki values were calculated using the method of Cheng and Prusoff and are presented as the mean (±1 SEM).

[1] = target: T2, human vesicular acetylcholine transporter (VAChT) (Homo sapiens, UniProt Q16572); assay: VAChT binding assay, (−)-[3H]vesamicol, human VAChT expressed in PC12 cells
T2 construct: expressed in transfected cells; host or cells: PC12 A123.7 cells (crude extract / homogenized, partially clarified cells)
T2 sequence (Q16572 1-532): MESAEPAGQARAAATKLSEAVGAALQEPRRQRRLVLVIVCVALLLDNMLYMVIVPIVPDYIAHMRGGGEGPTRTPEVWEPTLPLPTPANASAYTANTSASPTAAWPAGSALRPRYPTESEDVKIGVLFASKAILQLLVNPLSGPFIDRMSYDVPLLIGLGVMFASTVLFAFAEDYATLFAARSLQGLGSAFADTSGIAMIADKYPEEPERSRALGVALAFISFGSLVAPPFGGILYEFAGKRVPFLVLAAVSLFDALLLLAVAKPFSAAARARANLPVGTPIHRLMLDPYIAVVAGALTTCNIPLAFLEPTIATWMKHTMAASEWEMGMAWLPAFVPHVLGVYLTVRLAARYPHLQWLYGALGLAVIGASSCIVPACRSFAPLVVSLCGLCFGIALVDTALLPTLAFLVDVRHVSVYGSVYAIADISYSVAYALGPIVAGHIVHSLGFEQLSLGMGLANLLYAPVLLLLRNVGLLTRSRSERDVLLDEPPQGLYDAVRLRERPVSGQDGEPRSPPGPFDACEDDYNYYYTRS
Experimental: In vitro binding assays of these novel compounds to VAChT were conducted with human vesicular acetylcholine transporter (VAChT) permanently expressed in PC12^A123.7 cells at about 50 pmol/mg of crude extract. […] Duplicate data were averaged and fitted by regression with a rectangular hyperbola to estimate the Ki value of the novel compound. All compounds were independently assayed at least two times.

σ2 receptor [2] = target: T3, σ2 receptor (Rattus norvegicus, UniProt Q5U3Y7); assay: σ2 receptor binding assay, [3H]DTG, rat liver membrane homogenates; design: conducted using rat liver membrane homogenates; from tissue; host or cells: rat liver membrane homogenates
T3 sequence (Q5U3Y7 1-176): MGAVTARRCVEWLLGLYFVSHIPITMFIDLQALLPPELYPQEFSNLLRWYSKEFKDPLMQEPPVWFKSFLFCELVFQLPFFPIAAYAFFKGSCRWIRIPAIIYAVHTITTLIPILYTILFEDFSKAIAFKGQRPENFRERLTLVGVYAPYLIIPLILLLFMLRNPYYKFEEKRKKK
Experimental: as §1
The incubation time was 2 h at room temperature. Nonspecific binding was determined from samples that contained 10 μM of cold haloperidol. All other procedures were identical to those described for the σ1 receptor binding assay above.
as §2

VAChT = target: T4, VAChT (Tetronarce californica, UniProt P81721); assay: biochemical; assay type: binding; details: for VAChT/σ selectivity: in words; for σ1/VAChT: selectivity index Ki (σ1)/Ki (VAChT); for σ2/VAChT: selectivity index Ki (σ2)/Ki (VAChT)
T4 construct: using highly purified Torpedo synaptic vesicles; from tissue
T4 sequence (P81721 1-515): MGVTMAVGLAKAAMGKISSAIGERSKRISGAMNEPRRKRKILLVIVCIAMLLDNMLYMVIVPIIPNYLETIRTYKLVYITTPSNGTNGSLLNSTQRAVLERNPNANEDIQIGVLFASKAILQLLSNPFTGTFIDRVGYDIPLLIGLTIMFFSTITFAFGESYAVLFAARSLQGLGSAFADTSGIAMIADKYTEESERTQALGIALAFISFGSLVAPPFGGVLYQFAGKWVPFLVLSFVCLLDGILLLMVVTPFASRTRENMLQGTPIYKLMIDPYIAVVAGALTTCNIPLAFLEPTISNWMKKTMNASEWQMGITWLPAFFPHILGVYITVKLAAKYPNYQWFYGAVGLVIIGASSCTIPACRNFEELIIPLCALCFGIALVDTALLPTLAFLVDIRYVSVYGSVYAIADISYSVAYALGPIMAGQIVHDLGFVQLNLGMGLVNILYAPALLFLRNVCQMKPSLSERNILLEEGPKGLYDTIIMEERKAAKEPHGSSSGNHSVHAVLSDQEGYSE

σ2 receptor [3] = target: T3, σ2 receptor; assay: σ2 binding of Table 5 compounds; design: species or system guinea pig; details: read-out: σ2 Ki (nM) ± SEM; Table 6
Experimental: Compounds were tested for VAChT binding using highly purified Torpedo synaptic vesicles. The σ1 and σ2 binding affinities were tested in rat brain and in guinea pig membranes, respectively. Structures and Equilibrium binding constants (Ki) are reported in Table 5 and Table 6, respectively. As in previous studies, we define ligand selectivity in terms of a selectivity index which is calculated as Ki (σ1 or σ2)/Ki (VAChT).
Consequently, we also screened the target compounds for sigma binding to identify selective VAChT ligands from this new structural class of agents.

[4] = Table 4, Ki values of VAChT specific compounds, tissue not given, read-out: Sigma-1 σ1
[5] = Table 4, Ki values of VAChT specific compounds, source not given, read-out: VAChT
[6] = Table 4, Ki values of VAChT specific compounds, tissue not given, read-out: Sigma-2 σ1
[7] = expressed human VAChT, mean ± SEM, read-out: VAChT (Ki)

O=C(c1ccc(F)cc1)C1CCN(C2CCN(Cc3ccc(F)cc3)CC2O)CC1 (racemic) [Compound 14a, (1′-(4-Fluorobenzyl)-3′-hydroxy-[1,4′-bipiperidin]-4-yl)(4-fluorophenyl)methanone]
Ki (σ1 receptor; membrane preparations of guinea pig brain, mean ± SEM, at least three experiments, read-out: σ1 (Ki)): < 5 nM and 0.48 nM

Nc1cccc2c1CC(N1CCC(C(=O)c3ccc(F)cc3)CC1)C(O)C2 (single isomer, unassigned) [WW-1-88-1]
Ki (σ1 receptor; [4]): 3690 ± 537 nM
Ki [1, 5]: 366 ± 36 nM
Ki (σ2 receptor [2]; [6]): 14700 ± 1940 nM

Nc1cccc2c1CC(N1CCC(C(=O)c3ccc(F)cc3)CC1)C(O)C2 (single isomer, unassigned) [WW-1-88-2]
Ki (σ1 receptor; [4]): 3550 ± 438 nM
Ki [1, 5]: 20.9 ± 4.98 nM
Ki (σ2 receptor [2]; [6]): 6890 ± 546 nM

O=C(c1ccc(F)cc1)C1CCN(C2CCN(C(=O)c3ccc(F)cc3)CC2O)CC1 (centres unmarked) [Compound 15a, (3′-Hydroxy-[1,4′-bipiperidine]-1′,4-diyl)bis(4-fluorophenyl)methanone]
Ki [1, 7]: 3600 ± 499 nM

COc1ccc(C(=O)C2CCN(C3CN(Cc4ccccc4)CCC3O)CC2)cc1 (centres unmarked) [Compound 16g, (1′-Benzyl-4′-hydroxy-[1,3′-bipiperidin]-4-yl)(4-methoxyphenyl)methanone]
Ki [1, 7]: 35.5 ± 11.1 nM
Ki (σ2 receptor [2]; homogenates of rat liver, mean ± SEM, read-out: σ2 (Ki)): 8540 ± 1900 nM

COc1ccc(C(=O)C2CCN(C3Cc4ccccc4CC3O)CC2)cc1 (centres unmarked) [DZT-I-107]
Ki (σ1 receptor; [4]): 132 ± 10.1 nM
Ki [1, 5]: 4.64 ± 0.47 nM
Ki (σ2 receptor [2]; [6]): 1953 ± 13.1 nM

Cc1ccc(C(=O)C2CCN(C3Cc4c(N)cccc4CC3O)CC2)cn1 (centres unmarked) [OS-5-70, (1-(8-amino-3-hydroxy-1,2,3,4-tetrahydronaphthalen-2-yl)piperidin-4-yl)(6-methylpyridin-3-yl)methanone oxalate]
Ki [1, 5]: 48 ± 11.4 nM
Ki (VAChT): 48 ± 11.4 nM
Ki (σ2 receptor [3]): 27500 ± 6940 nM
Ki (σ2 receptor [2]; [6]): 27500 ± 6940 nM

COc1cccnc1C(=O)C1CCN(C2Cc3ccccc3CC2O)CC1 (centres unmarked) [TZ-4-1-92, (1-(3-Hydroxy-1,2,3,4-tetrahydronaphthalen-2-yl)piperidin-4-yl)(3-methoxypyridin-2-yl)methanone oxalate]
Ki (VAChT): 121 ± 29.2 nM
VAChT/σ selectivity (VAChT): poor selectivity
σ1/VAChT (VAChT): 173.3
σ2/VAChT (VAChT): 12.9
Ki (σ2 receptor [3]): 1560 ± 63 nM

O=C(c1cncc(F)c1)C1CCN(C2Cc3ccccc3CC2O)CC1 (centres unmarked) [TZ-4-1-96, (5-Fluoropyridin-3-yl)(1-(3-hydroxy-1,2,3,4-tetrahydronaphthalen-2-yl)piperidin-4-yl)methanone oxalate]
Ki (VAChT): 10.1 ± 1.54 nM
VAChT/σ selectivity (VAChT): moderate or high
σ1/VAChT (VAChT): 70.2
σ2/VAChT (VAChT): 167.3
Ki (σ2 receptor [3]): 1690 ± 56 nM

Cn1ccc(C(=O)C2CCN(C3Cc4ccccc4CC3O)CC2)c1 (centres unmarked) [TZ-4-1-114, (1-(3-Hydroxy-1,2,3,4-tetrahydronaphthalen-2-yl)piperidin-4-yl)(1-methyl-1H-pyrrol-3-yl)methanone oxalate]
Ki (σ2 receptor [3]): 7710 ± 1060 nM

O=C(c1cccnc1F)C1CCN(C2Cc3ccccc3CC2O)CC1 (centres unmarked) [TZ-4-1-122, (2-fluoropyridin-3-yl)(1-(3-hydroxy-1,2,3,4-tetrahydronaphthalen-2-yl)piperidin-4-yl)methanone]
Ki (VAChT): 12.7 ± 2.41 nM
VAChT/σ selectivity (VAChT): moderate or high
σ1/VAChT (VAChT): 102.2
σ2/VAChT (VAChT): 277.9
Ki (σ2 receptor [3]): 3530 ± 331 nM

Cn1c(C(=O)C2CCN(C3Cc4ccccc4CC3O)CC2)cccc1=O (centres unmarked) [TZ-4-1-148, 6-(1-(3-Hydroxy-1,2,3,4-tetrahydronaphthalen-2-yl)piperidine-4-carbonyl)-1-methylpyridin-2(1H)-one]
Ki (VAChT): 182 ± 64.8 nM
VAChT/σ selectivity (VAChT): poor selectivity
σ1/VAChT (VAChT): 11.8
σ2/VAChT (VAChT): 18.3
Ki (σ2 receptor [3]): 3340 ± 127 nM

Cn1ccc(C(=O)C2CCN(C3Cc4ccccc4CC3O)CC2)cc1=O (centres unmarked) [TZ-4-1-150, 4-(1-(3-Hydroxy-1,2,3,4-tetrahydronaphthalen-2-yl)piperidine-4-carbonyl)-1-methylpyridin-2(1H)-one oxalate]
Ki (VAChT): 66.2 ± 10.2 nM
VAChT/σ selectivity (VAChT): moderate or high
σ1/VAChT (VAChT): 50.5
σ2/VAChT (VAChT): 32.1
Ki (σ2 receptor [3]): 2120 ± 251 nM

O=C(c1ccc(F)nc1)C1CCN(C2Cc3ccccc3CC2O)CC1 (centres unmarked) [TZ-4-1-154, (6-fluoropyridin-3-yl)(1-(3-hydroxy-1,2,3,4-tetrahydronaphthalen-2-yl)piperidin-4-yl)methanone oxalate]
Ki (VAChT): 26.1 ± 2.41 nM
VAChT/σ selectivity (VAChT): moderate or high
σ1/VAChT (VAChT): 26.2
σ2/VAChT (VAChT): 67.0
Ki (σ2 receptor [3]): 1750 ± 93 nM

O=C(c1ncccc1OCCF)C1CCN(C2Cc3ccccc3CC2O)CC1 (centres unmarked) [TZ-4-2-12, (3-(2-fluoroethoxy)pyridin-2-yl)(1-(3-hydroxy-1,2,3,4-tetrahydronaphthalen-2-yl)piperidin-4-yl)methanone oxalate]
Ki (VAChT): 76.4 ± 8.33 nM
VAChT/σ selectivity (VAChT): poor selectivity
σ1/VAChT (VAChT): 262.0
σ2/VAChT (VAChT): 4.0
Ki (σ2 receptor [3]): 303 ± 130 nM
